Laboratory results published in patent US20250318521A1, “COMBINATION FOR REDUCING PHYTOTOXICITY OF SYSTEMIC FUNGICIDES IN CROPS AND RELATED METHODS” (UPL Mauritius Limited, priority 2024, published 2025).

Test system: soyabean crop
Experiment: Evaluation of % damage in soyabean crop using safener (prothioconazole phytotoxicity reduction)
Source text: A 480 SC (suspension concentrate) formulation of prothioconazole was used. The application amount of prothioconazole was high in an amount of 350 g ai/ha.
A 480 SC (suspension concentrate) formulation of prothioconazole was used. The application amount of prothioconazole was lower in an amount of 175 g ai/ha.

Q: Which results are given for mancozeb?
A: % Damage (prothioconazole 175 g ai/ha (480 SC) + safener 560 g ai/ha, ratio 1:3.2): 15.0%; % Damage (prothioconazole 175 g ai/ha (480 SC) + safener 1120 g ai/ha, ratio 1:6.4): 18.0%; % Damage (prothioconazole 175 g ai/ha (480 SC) + safener 1680 g ai/ha, ratio 1:9.6): 11.7%; % Damage (prothioconazole 350 g ai/ha (480 SC) + safener 560 g ai/ha, ratio 1:1.6): 32.5%; % Damage (prothioconazole 350 g ai/ha (480 SC) + safener 1120 g ai/ha, ratio 1:3.2): 21.7%; % Damage (prothioconazole 350 g ai/ha (480 SC) + safener 1680 g ai/ha, ratio 1:4.8): 19.2%
